Laboratory results published in US6593372B2, “Therapeutic uses for nitric oxide inhibitors” (Cold Spring Harbor Laboratory, priority 1996, dated 2003).
Marks after values point to notes of the source that are not given here.

Experiments:
[1] = system: tadpole brain, optic tectum; assay: Elvax implants with NO donor or NOS inhibitor in brain ventricle of stage 45 tadpoles, optic tectum analysis; format: in vivo; conditions: for BrdU-positive cells (total), change / BrdU-positive cells per 10^3 cells, change / TUNEL-positive cells (total), change / TUNEL-positive cells per 10^3 cells, change / brain volume, change / cell density, change / cell number, change: vs saline control
Experimental: To test the effect of exogenously supplying NO to the developing tadpole brain, pieces of the slow-release matrix Elvax impregnated either with S-nitroso-N-acetylpenicillamin (SNAP, a widely used donor or NO which releases NO upon hydrolysis), or with saline as a control were inserted into the brain ventricle of state 45 tadpoles. At 1 or 3 days after implantation the following parameters in the optic tectum were analyzed: the total number of cells (as measured by the number of DAPI-stained nuclei), the number of S phase proliferating cells (as measured by BrdU incorporation), the number of apoptotic cells (as measured by TUNEL assay), the relative numbers of BrdU- and TUNEL-positive cells per 10^3 total cells, the size of the optic tectum, and the cell density in the tectum (Table 5). […] At 3 days the effects of NO on cell proliferation are less pronounced, likely reflecting the complete hydrolysis of the NO donor and the cessation of NO release. […] An increase in programmed cell death in response to NO likely contributes to the decrease in the total number of cells in the brain.
The close proximity of proliferating cells and NOS-expressing cells in the optic tectum and data from the NO donor experiments above are consistent with the proposed antiproliferative role of NO during Xenopus brain development. To test the causative role of NO in cell cycle arrest of neuronal precursors and to determine whether production of NO is necessary for cell cycle arrest and subsequent differentiation of neuronal precursors in the developing Xenopus brain, NOS activity in the brain was inhibited by using Elavax matrix impregnated with a NOS inhibitor, either L-NAME or ETU, or with saline as a control. Pieces of impregnated matrix were inserted into the brain ventricle of stage 45 tadpoles. After 3 days of treatment the brains were examined for changes in the patterns of cell division and differentiation, cell number, and overall size and morphology.
Animals, NOS inhibitors, and NO donors. Albino Xenopus laevis tadpoles were obtained by human chorionic gonadotrophin induced matings and raised under standard conditions. At state 45^5, animals were anesthetized in 0.02% 3-aminobenzoic acid (MS-222; Sigma) and a tiny piece (100 μm^2×30 μm) of slow release Elvax plastic polymer (Dupont) was inserted into the tectal ventricle through an incision made in the overlying skin with a 30 gauge needle. Elvax was prepared with stock concentrations of the NOS inhibitors, 2-ethyl-2thiopseudourea (ETU, Sigma) or L-nitro-arginine methyl ester (L-NAME, Sigma) or the NO donor S-nitroso-acetylpenicillamnin (SNAP, Sigma) prepared as a 1:10 ratio of chemical to polymer matrix. Low molecular weight molecules, including L-NAME, are released at a constant rate over a period up to 30 days as the lyophilized Elvax matrix slowly hydrates. […] Control animals were treated with Elvax impregnated with saline (0.1 M phosphate buffer).
Histochemistry and antibodies. Immunocytochemistry with wholemount preparations and sections of the tadpole was performed as described. Monoclonal antibodies to β-II tubulin, N-CAM (developed by U. Rutishauser), and Islet-1 (developed by T. M. Jessell) were obtained from the Developmental Studies Hybridoma Bank developed under the auspices of the NICHD and maintained by the University of Iowa, Department of Biological Sciences, Iowa City, Iowa 52243. Anti-mouse antibody conjugated to fluorescein (Bochringer Manheim) was used as a secondary antibody. Specimens were visualized and photographed under fluorescence or Normarski optics on a Zeiss Axiophot. For nuclei visualization, brain sections were stained with DAPI, a fluorescent DNA stain (Molecular Probes) at 1 μM. To identify cells in S phase tadpoles were injected with 50 μg/ml 5-Bromo-deoxyuridine (BrdU) (Beckton-dickinson). After two hours survival, animals were fixed in 3.7% paraformaldehyde for 2 hours and then in 70% ethanol overnight. […]

BM cells [2] = assay: Hematopoietic markers in BM cells of irradiated mice after injection of NOS inhibitors; format: in vivo; conditions: 7-10 days after transplantation
Experimental: To study the maturation of hematopoietic cells in the bone marrow of the irradiated recipient mice, the animals were treated as described above and the BM cells from the demurs of syngeneic donors were injected intravenously (10^5 BM cells per mice) in the recipients.
The BM cells were tested for the presence of various growth factor receptors which serve as markers of the differentiation stage and indicate the presence of stem cells and multipotent percursor cells. The BM preparations were tested for cells expressing receptors to HSF (ligand of c-kit), GM-CSF, G-CSF and IL-3.

[3] = system: tadpole brain, optic tectum; assay: Elvax implants with NO donor or NOS inhibitor in brain ventricle of stage 45 tadpoles, optic tectum analysis; format: in vivo; conditions: 7d
developing Xenopus brain = assay: Plastic impregnated with NOS inhibitors in brain ventricle of stage 43 tadpoles (BrdU, TUNEL); format: in vivo, Xenopus laevis; conditions: stage 43 tadpoles, 3, 7 and 12 days, vs control brains
Experimental: After 3, 7 and 12 days, animals were examined for changes in the patterns of cell division, differentiation, survival, and morphology of the brain. […] Whether the inhibition of NOS and excessive proliferation of cells in the developing brain affects the programmed death of neurons in the tectum was tested. […] The increase in the number of TUNEL-positive cells is not due to toxicity of the inhibitors, since cells continued to incorporate BrdU very effectively. […] Alternatively, this may indicate that differentiated neurons became dependent on NO for survival, similar to the situation in fully differentiated PC12 cells (Peunova et al., 1996). Neuronal differentiation in the brain is affected

BM cells [4] = assay: TUNEL apoptosis in BM cells after prolonged treatment with NOS inhibitors; format: in vivo; conditions: control 8+/−3%
Excerpt: To test whether prolonged treatment with NOS inhibitors affects the rate of programmed cell death in BM cells, the number of aproptotic cells in the preparation of BM cells was examined.

## CC(=O)N[C@H](C(=O)O)C(C)(C)SN=O (racemic) [SNAP, S-nitroso-N-acetylpenicillamine]
[1]; 1d
  BrdU-positive cells (total): 12 +/− 2
  BrdU-positive cells per 10^3 cells: 3
  TUNEL-positive cells (total): 138 +/− 12
  TUNEL-positive cells per 10^3 cells: 34
  brain volume: 66.2 +/− 6.4 mm^3 × 10^−4
  cell density: 62.6 +/− 14.1 cells per mm^3 × 10^−4
  cell number: 3983 +/− 606
  BrdU-positive cells (total), change: −96.2%
  BrdU-positive cells per 10^3 cells, change: −95.2%
  TUNEL-positive cells (total), change: −28.2%
  TUNEL-positive cells per 10^3 cells, change: −10.5%
  brain volume, change: −15.6%
  cell density, change: −2.8%
  cell number, change: −20.7%
[1]; 3d
  BrdU-positive cells (total): 316 +/− 22
  BrdU-positive cells per 10^3 cells: 63
  TUNEL-positive cells (total): 82 +/− 10
  TUNEL-positive cells per 10^3 cells: 16
  brain volume: 80.1 +/− 8.6* mm^3 × 10^−4
  cell density: 62.3 +/− 1.7** cells per mm^3 × 10^−4
  cell number: 5012 +/− 594**
  BrdU-positive cells (total), change: −34.0%
  BrdU-positive cells per 10^3 cells, change: +21.1%
  TUNEL-positive cells (total), change: −51%
  TUNEL-positive cells per 10^3 cells, change: −11.1%
  brain volume, change: −31.3%
  cell density, change: −20.8%
  cell number, change: −45.1%
[1]; Elvax stock, range of concentrations tested
  stock concentration found to be effective: 300 mM
[1]; day 1
  number of proliferating cells, of the control value: 5%

## CCSC(=N)N [ETU, 2-ethyl-2-thiopseudourea]
BM cells [2]; control 2%
  c-kit positive BM cells: 84%
BM cells [2]; control 7%
  IL-3-R positive BM cells: 83%
BM cells [2]; control 18%
  GM-CSF-R positive BM cells: 10%
BM cells [2]; control 24%
  G-CSF-R positive BM cells: 8%
[3]
  cell density: 105 +/− 3* cells per mm^3 × 10^−4
[3]; vs saline control
  BrdU-positive cells (total), change: +269%
  cell density, change: +25.5%
Developing Xenopus brain
  number of cells in the S phase (BrdU labeling) in the brain: dramatic increase
[1]; 7d
  BrdU-positive cells (total): 550 +/− 50
  BrdU-positive cells per 10^3 cells: 42
  TUNEL-positive cells (total): 184 +/− 7
  TUNEL-positive cells per 10^3 cells: 14
  brain volume: 122.3 +/− 4.3* mm^3 × 10^−4
  cell number: 12870 +/− 690*
  BrdU-positive cells per 10^3 cells, change: +247%
  TUNEL-positive cells (total), change: +128%
  TUNEL-positive cells per 10^3 cells, change: +40.0%
  cell number, change: +53.7%
[1]; Elvax stock 1 M L-NAME, 10 mM ETU, increased BrdU incorporation
  toxicity to the animals: without any signs of toxicity
BM cells [4]
  proportion of apoptotic cells (TUNEL) in BM: 8%
